PubChem BioAssay AID330 (DTP/NCI, 2004)
Several values for one entry are separate records, joined by “and”; a condition that tells them apart may be missing. Equal values may be shown once. Inconclusive results and toxic doses are left out. The calls were made as follows: active = survival T/C of 150% or more; inactive = T/C below 125% in these data.

System: P388 leukemia ip, CD2F1 mice, survival T/C
Assay: NCI In Vivo Anticancer Drug Screen. Data for tumor model P388 Leukemia (intraperitoneal) in CD2F1 (CDF1) mice
Conditions: endpoint: median survival time, higher = longer survival
Method in brief: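 Mice carrying the transplanted tumor received test compound or vehicle. Survival was recorded in each group, and the value is the treated-group measurement divided by that of the vehicle-treated control group.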

[1] = dose: 25.0 mg/kg/injection, schedule: Q01DX009 (ip), vehicle: Klucel (hydroxypropylcellulose) (HPC)
[2] = dose: 50.0 mg/kg/injection, schedule: Q01DX009 (ip), vehicle: Klucel (hydroxypropylcellulose) (HPC)
[3] = dose: 100.0 mg/kg/injection, schedule: Q01DX009 (ip), vehicle: Klucel (hydroxypropylcellulose) (HPC)
[4] = dose: 50.0 mg/kg/injection, schedule: Q01DX005 (ip), vehicle: Klucel (hydroxypropylcellulose) (HPC)
[5] = dose: 100.0 mg/kg/injection, schedule: Q01DX005 (ip), vehicle: Klucel (hydroxypropylcellulose) (HPC)
[6] = dose: 200.0 mg/kg/injection, schedule: Q01DX005 (ip), vehicle: Klucel (hydroxypropylcellulose) (HPC)
[7] = dose: 50.0 mg/kg/injection, schedule: Q01DX009 (ip), vehicle: saline
[8] = dose: 100.0 mg/kg/injection, schedule: Q01DX009 (ip), vehicle: saline
[9] = dose: 12.5 mg/kg/injection, schedule: Q01DX009 (ip), vehicle: saline with Tween-80
[10] = dose: 200.0 mg/kg/injection, schedule: Q01DX009 (ip), vehicle: Klucel (hydroxypropylcellulose) (HPC)

Measured: T/C

CCC/C=C/C1SCC(=O)N1c1nncs1 (stereo not drawn)
inactive: dose: 50.0 mg/kg/injection, schedule: Q01DX005 (ip), vehicle: saline with Tween-80 102 % of control | dose: 100.0 mg/kg/injection, schedule: Q01DX005 (ip), vehicle: saline with Tween-80 103 % of control | dose: 200.0 mg/kg/injection, schedule: Q01DX005 (ip), vehicle: saline with Tween-80 117 % of control

COCCN=NNc1ccc(C#N)cc1
inactive: dose: 12.5 mg/kg/injection, schedule: Q01DX009 (ip), vehicle: distilled water + Tween-80 100 % of control | dose: 25.0 mg/kg/injection, schedule: Q01DX009 (ip), vehicle: distilled water + Tween-80 105 % of control | dose: 50.0 mg/kg/injection, schedule: Q01DX009 (ip), vehicle: distilled water + Tween-80 101 % of control | dose: 100.0 mg/kg/injection, schedule: Q01DX009 (ip), vehicle: distilled water + Tween-80 97 % of control

CCOC1(NC(=O)N(C)C)C2CCCC21 (stereo not drawn)
inactive: [1] 97 % of control | [2] 97 % of control | [3] 94 % of control

N#Cc1c(-c2cccn(-c3ccccc3)c2=O)cc(-c2ccccc2)[nH]c1=O
inactive: [4] 88 % of control | [5] 89 % of control | [6] 110 % of control

O=C(O)C1CSC2(CCCN(Cc3ccccc3)C2)N1 (stereo not drawn)
inactive: [7] 96 % of control | [8] 106 % of control | dose: 200.0 mg/kg/injection, schedule: Q01DX009 (ip), vehicle: saline 113 % of control

CC(=O)N/N=C1\CCC2CCC1C2 (stereo not drawn)
inactive: [4] 100 % of control | [5] 99 % of control | [6] 96 % of control

Cn1/c2cc/c1=C(\c1ccc(S(=O)(=O)O)cc1)c1ccc([n-]1)/C(c1ccc(S(=O)(=O)O)cc1)=c1/cc/c([nH]1)=C(\c1ccc(S(=O)(=O)O)cc1)c1ccc([n-]1)/C=2c1ccc(S(=O)(=O)O)cc1.O.O=S(=O)(O)C(F)(F)F.[Cu+2]
inactive: [9] 112 % of control | dose: 25.0 mg/kg/injection, schedule: Q01DX009 (ip), vehicle: saline with Tween-80 121 % of control | dose: 50.0 mg/kg/injection, schedule: Q01DX009 (ip), vehicle: saline with Tween-80 119 % of control | [7] 92 % of control | [8] 100 % of control

COc1ccc(C2=C(Cl)C(=O)N(c3ccccn3)C(=O)C2(Cl)Cl)cc1
inactive: dose: 100.0 mg/kg/injection, schedule: Q04DX003 (ip), vehicle: Klucel (hydroxypropylcellulose) (HPC) 98 % of control | dose: 200.0 mg/kg/injection, schedule: Q04DX003 (ip), vehicle: Klucel (hydroxypropylcellulose) (HPC) 106 % of control | dose: 400.0 mg/kg/injection, schedule: Q04DX003 (ip), vehicle: Klucel (hydroxypropylcellulose) (HPC) 100 % of control

ClCCc1ccn[nH]1
inactive: dose: 100.0 mg/kg/injection, schedule: Q04DX002 (ip), vehicle: saline 97 % of control | dose: 200.0 mg/kg/injection, schedule: Q04DX002 (ip), vehicle: saline 99 % of control

COC1=C(N)C(=O)c2ncccc2C1=O
inactive: dose: 3.12 mg/kg/injection, schedule: Q01DX009 (ip), vehicle: saline with Tween-80 101 % of control | dose: 4.0 mg/kg/injection, schedule: Q01DX009 (ip), vehicle: DMSO 100 % of control | dose: 6.25 mg/kg/injection, schedule: Q01DX009 (ip), vehicle: saline with Tween-80 95 % of control | dose: 8.0 mg/kg/injection, schedule: Q01DX009 (ip), vehicle: DMSO 108 % of control | [9] 94 % of control | dose: 16.0 mg/kg/injection, schedule: Q01DX009 (ip), vehicle: DMSO 102 % of control

C[Si](C)(C)OC=C1CCCCC1
inactive: dose: 50.0 mg/kg/injection, schedule: Q01DX009 (ip), vehicle: olive oil, sesame oil, peanut oil 113 % of control | dose: 100.0 mg/kg/injection, schedule: Q01DX009 (ip), vehicle: olive oil, sesame oil, peanut oil 122 % of control | dose: 200.0 mg/kg/injection, schedule: Q01DX009 (ip), vehicle: olive oil, sesame oil, peanut oil 108 % of control

Cc1cc(C)cc(C(=O)N=C(c2ccncc2)c2nc(-c3ccccc3)oc2O)c1
inactive: dose: 60.0 mg/kg/injection, schedule: Q01DX005 (ip), vehicle: saline with Tween-80 88 % of control | dose: 120.0 mg/kg/injection, schedule: Q01DX005 (ip), vehicle: saline with Tween-80 86 % of control | dose: 240.0 mg/kg/injection, schedule: Q01DX005 (ip), vehicle: saline with Tween-80 88 % of control

CC(=O)C1=C(N)C(C#N)=C(C)C(C)(O)C1 (stereo not drawn)
inactive: dose: 50.0 mg/kg/injection, schedule: Q01DX009 (ip), vehicle: saline + alcohol 108 % of control | dose: 100.0 mg/kg/injection, schedule: Q01DX009 (ip), vehicle: saline + alcohol 90 % of control | dose: 200.0 mg/kg/injection, schedule: Q01DX009 (ip), vehicle: saline + alcohol 89 % of control

CCOC(=O)c1c(C)n(O)c2ccc(Cl)cc2c1=O
inactive: [2] 100 % of control | [3] 102 % of control | [10] 104 % of control

Clc1ccc2c(c1)C(c1ccccc1)=NCc1nncn1-2
inactive: [1] 103 % of control | [2] 95 % of control

O=C(O)c1c(-c2ccc(Cl)cc2)c(-c2ccc(Cl)cc2)nn(CCO)c1=O
inactive: dose: 25.0 mg/kg/injection, schedule: Q04DX002 (ip), vehicle: distilled water + Tween-80 101 % of control | dose: 50.0 mg/kg/injection, schedule: Q04DX002 (ip), vehicle: distilled water + Tween-80 100 % of control | dose: 100.0 mg/kg/injection, schedule: Q04DX002 (ip), vehicle: distilled water + Tween-80 102 % of control | dose: 200.0 mg/kg/injection, schedule: Q04DX002 (ip), vehicle: distilled water + Tween-80 95 % of control

CC(=O)Oc1ccc(/C(C)=N/NC(=O)C(C)SC(C)C(=O)N/N=C(\C)c2ccc(OC(C)=O)cc2)cc1 (stereo not drawn)
inactive: [4] 108 % of control | [5] 105 % of control | [6] 106 % of control

CC(C)([CH2][Sn]([Cl])([CH2]C(C)(C)c1ccccc1)[O][Sn]([Cl])([CH2]C(C)(C)c1ccccc1)[CH2]C(C)(C)c1ccccc1)c1ccccc1
inactive: dose: 1.56 mg/kg/injection, schedule: Q01DX005 (ip), vehicle: Klucel (hydroxypropylcellulose) (HPC) 104 % of control and 97 % of control | dose: 3.12 mg/kg/injection, schedule: Q01DX005 (ip), vehicle: Klucel (hydroxypropylcellulose) (HPC) 99 % of control and 100 % of control and 109 % of control | dose: 6.25 mg/kg/injection, schedule: Q01DX005 (ip), vehicle: Klucel (hydroxypropylcellulose) (HPC) 100 % of control and 119 % of control and 96 % of control | dose: 12.5 mg/kg/injection, schedule: Q01DX005 (ip), vehicle: Klucel (hydroxypropylcellulose) (HPC) 100 % of control and 106 % of control

COc1cccc(/C=C/C(C)=N/NC(N)=O)c1
inactive: dose: 30.0 mg/kg/injection, schedule: Q01DX005 (ip), vehicle: Klucel (hydroxypropylcellulose) (HPC) 100 % of control | dose: 60.0 mg/kg/injection, schedule: Q01DX005 (ip), vehicle: Klucel (hydroxypropylcellulose) (HPC) 101 % of control | dose: 120.0 mg/kg/injection, schedule: Q01DX005 (ip), vehicle: Klucel (hydroxypropylcellulose) (HPC) 100 % of control | dose: 240.0 mg/kg/injection, schedule: Q01DX005 (ip), vehicle: Klucel (hydroxypropylcellulose) (HPC) 95 % of control

Cc1ccc(C(C)C)c(OC(=O)Nc2ccc(Cl)cc2)c1
inactive: [2] 100 % of control | [3] 87 % of control | [10] 95 % of control | dose: 400.0 mg/kg/injection, schedule: Q01DX009 (ip), vehicle: Klucel (hydroxypropylcellulose) (HPC) 92 % of control
